Assays:
C57BL/6J mice [1] = settings: 30 mg/kg/day orally for 3 months (90 days); compared to calcium gluconate or vehicle; p<0.05; FIG. 2A
Method: (§1) Vehicle (saline) was administered to the third group of mice as a control. The animals were then subject to TST and FST.

C57BL/6J mice [2] = settings: 30 mg/kg/day orally for 3 months (90 days); compared to calcium gluconate or vehicle; p<0.05; FIG. 2B
Method: In an FST, each mouse is placed in a separate acrylic glass cylinder that is filled with water (23-25° C.) to a level high enough to prevent the mouse from touching the bottom of the cylinder with his paws or tail, yet low enough to prevent the mouse from escaping through the top opening of the cylinder. The mice are thus forced to swim in the cylinders. […] FST is the most widely used as a screen for acute antidepressants, and the duration of immobility is the main parameter by which the effectiveness of an antidepressant treatment is measured.
as §1

human bone marrow cells = settings: 1, 2.5, 5 and 7 sec time points; every time point tested; FIG. 1
[3] = in vivo; cited from earlier work

In the case of `O=C(O)[C@H](O)[C@@H](O)CO` (stereo in doubt) [calcium (2R, 3S)-2,3,4-trihydroxybutyric acid], the “duration of immobility in TST” value (C57BL/6J mice [1]) is reported as “significantly decreased duration of immobility”, the “duration of immobility in FST” value (C57BL/6J mice [2]) is reported as “significantly decreased duration of immobility” and the “calcium absorption by human bone marrow cells relative to calcium gluconate” value (human bone marrow cells) is reported as “approximately three times more”. The “bioavailability compared to calcium gluconate, calcium acetate and calcium carbonate” value [3] was “higher bioavailability”.

From patent US20140080908A1, “COMPOSITIONS AND METHODS FOR IMPROVING OR […]-LIKE SYMPTOMS” (PHYTO TECH CORP., priority 2012, published 2014)
